For data set [1], the target named is NLRP3 (Homo sapiens, UniProt Q96P20). The experiment in a line: THP-1 cells pyroptosis assay. Type of data set: cell-based. More on the design: Seed THP-1 cells (25,000 cells/well) containing 1.0 μg/ml LPS; host or cells: THP-1 cells, LPS-primed, nigericin-stimulated. Particulars: LPS 1 μg/ml, nigericin 5 μM, resazurin read-out. The method, then:
THP-1 cells (ATCC #TIB-202) were grown in RPMI containing L-glutamine (Gibco #11835) supplemented with 1 mM sodium pyruvate (Sigma #S8636) and penicillin (100 units/ml)/streptomycin (0.1 mg/ml) (Sigma #P4333) in 10% Fetal Bovine Serum (FBS) (Sigma #F0804). The cells were routinely passaged and grown to confluency (˜10^6 cells/ml). On the day of the experiment, THP-1 cells were harvested and resuspended into RPMI medium (without FBS). The cells were then counted and viability (>90%) checked by Trypan blue (Sigma #T8154). Appropriate dilutions were made to give a concentration of 625,000 cells/ml. To this diluted cell solution was added LPS (Sigma #L4524) to give a 1 μg/ml Final Assay Concentration (FAC). 40 μl of the final preparation was aliquoted into each well of a 96-well plate. The plate thus prepared was used for compound screening.
The following method step-by-step assay was followed for compound screening. • 1. Seed THP-1 cells (25,000 cells/well) containing 1.0 μg/ml LPS in 40 μl of RPMI medium (without FBS) in 96-well, black walled, clear bottom cell culture plates coated with poly-D-lysine (VWR #734-0317) • 2. Add 5 μl compound (8 points half-log dilution, with 10 μM top dose) or vehicle (DMSO 0.1% FAC) to the appropriate wells • 3. Incubate for 3 hrs at 37° C. and 5% CO2 • 4. Add 5 μl nigericin (Sigma #N7143) (FAC 5 μM) to all wells • 5. Incubate for 1 hr at 37° C. and 5% CO2 • 6. At the end of the incubation period, spin plates at 300×g for 3 mins and remove supernatant • 7. Then add 50 μl of resazurin (Sigma #R7017) (FAC 100 μM resazurin in RPMI medium without FBS) and incubate plates for a further 1-2 hrs at 37° C. and 5% CO2 • 8. Plates were read in an Envision reader at Ex 560 nm and Em 590 nm • 9. IC50 data is fitted to a non-linear regression equation (log inhibitor vs response-variable slope 4-parameters) 96-Well Plate Map
On the technique in general: The colour change of resazurin is a common sign of viable cells or microbes.

Data set [2] is described as follows: PK protocol (intravenous and oral administration). The note with it: male, Sprague Dawley, plasma, rat, intravenous, dose 1 mg/kg; for Vd: read-out: Vdss. Type of data set: in vivo, male Sprague Dawley rats. The method, then: Pharmacokinetic parameters were determined in male Sprague Dawley rats (Charles River, UK, 250-350 g; or Vital River Laboratory Animal Technology Co Ltd, Beijing, China, 7-9 weeks old). Animals were individually housed during the study and maintained under a 12 h light/dark cycle. Animals had free access to food and water except that some orally dosed animals were food deprived overnight prior to the study. For intravenous administration, compounds were formulated as a solution in water or DMSO:PBS [10:90] in 2 mL/kg dosing volume and administered via tail vein. For oral administration, compounds were formulated as a solution in water or DMSO:water [10:90] in 5 mL/kg dosing volume and administered orally.
Serial blood samples (about 120-300 μL) were taken from each animal at each of 8 time-points post dose (0.083, 0.25, 0.5, 1, 2, 4, 8 and 24 h) or at each of 12 time-points post dose (0.03, 0.1, 0.17, 0.25, 0.5, 1, 2, 4, 6, 8, 12 and 24 h) or pre-dose and at each of 9 time-points post dose (0.25, 0.5, 1, 2, 4, 6, 8, 12 and 24 h). Samples were held on ice for no longer than 30 minutes before centrifugation (10,000 rpm (8,385 g) for 3 minutes; or 5,696 rpm (3,000 g) for 15 minutes) for plasma generation. Plasma was frozen on dry ice prior to bioanalysis. PK parameters were generated from LC-MS/MS data using Dotmatics or Phoenix WinNonlin 6.3 software.

Chain of NLRP3 (Q96P20 whole entry): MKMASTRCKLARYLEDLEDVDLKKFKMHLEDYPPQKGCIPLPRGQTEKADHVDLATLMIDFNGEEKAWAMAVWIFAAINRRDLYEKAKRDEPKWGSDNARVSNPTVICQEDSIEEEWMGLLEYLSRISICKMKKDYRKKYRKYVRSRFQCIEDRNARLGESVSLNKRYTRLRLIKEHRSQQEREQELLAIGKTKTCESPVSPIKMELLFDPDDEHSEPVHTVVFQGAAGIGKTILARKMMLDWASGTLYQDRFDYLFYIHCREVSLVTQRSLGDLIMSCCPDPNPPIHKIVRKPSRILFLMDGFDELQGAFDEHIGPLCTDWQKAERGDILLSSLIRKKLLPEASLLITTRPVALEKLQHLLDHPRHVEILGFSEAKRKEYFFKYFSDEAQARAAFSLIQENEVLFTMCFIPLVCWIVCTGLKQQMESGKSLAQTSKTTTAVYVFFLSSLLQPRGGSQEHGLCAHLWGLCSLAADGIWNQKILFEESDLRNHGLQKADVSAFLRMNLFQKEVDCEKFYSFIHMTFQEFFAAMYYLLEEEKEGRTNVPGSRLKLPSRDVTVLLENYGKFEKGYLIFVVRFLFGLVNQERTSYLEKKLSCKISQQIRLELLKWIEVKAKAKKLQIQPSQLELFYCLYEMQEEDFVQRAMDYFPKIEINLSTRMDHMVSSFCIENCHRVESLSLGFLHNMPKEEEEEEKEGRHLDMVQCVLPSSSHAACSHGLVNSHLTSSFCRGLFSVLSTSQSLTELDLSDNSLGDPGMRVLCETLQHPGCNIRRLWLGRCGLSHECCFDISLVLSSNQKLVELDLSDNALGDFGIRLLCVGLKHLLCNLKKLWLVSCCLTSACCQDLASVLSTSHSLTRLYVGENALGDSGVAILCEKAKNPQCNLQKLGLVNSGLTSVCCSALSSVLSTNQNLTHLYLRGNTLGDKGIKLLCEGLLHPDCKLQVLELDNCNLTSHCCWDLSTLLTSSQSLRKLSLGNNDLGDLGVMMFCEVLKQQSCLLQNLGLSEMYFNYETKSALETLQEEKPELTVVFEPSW

`CN(CC(O)CO)C(=O)c1cc(S(=O)(=O)NC(=O)Nc2c3c(cc4c2CCC4)CCC3)nn1C` (stereo not shown) [Example 65, N-(2,3-Dihydroxypropyl)-3-(N-((1,2,3,5,6,7-hexahydro-s-indacen-4-yl)carbamoyl)sulfamoyl)-N,1-dimethyl-1H-pyrazole-5-carboxamide]: in data set [1], the IC50 – broadly, the point on the concentration scale where inhibition reaches its midpoint – was in the range of 640 to 2560 nM.
With `CC(C)(O)Cn1cc(S(=O)(=O)NC(=O)Nc2c3c(cc4c2CCC4)CCC3)cn1` [Example 88, N-((1,2,3,5,6,7-Hexahydro-s-indacen-4-yl)carbamoyl)-1-(2-hydroxy-2-methylpropyl)-1H-pyrazole-4-sulfonamide], the IC50 in data set [1] is 640 to 2560 nM.
For the compound `CC(C)c1cccc(C(C)C)c1NC(=O)NS(=O)(=O)c1cc(C(=O)N2CCOCC2)n(C)n1` [Example 67, N-((2,6-Diisopropylphenyl)carbamoyl)-1-methyl-5-(morpholine-4-carbonyl)-1H-pyrazole-3-sulfonamide], the IC50 in data set [1] is 640 to 2560 nM.
On the same count and under the same terms, the result for `CN(C(=O)c1cc(S(=O)(=O)NC(=O)Nc2c3c(cc4c2CCC4)CCC3)nn1C)C1COC1` [Example 63, 3-(N-((1,2,3,5,6,7-Hexahydro-s-indacen-4-yl)carbamoyl)sulfamoyl)-N,1-dimethyl-N-(oxetan-3-yl)-1H-pyrazole-5-carboxamide] reads 640 to 2560 nM; that for `COCCN(CCOC)C(=O)c1cc(S(=O)(=O)NC(=O)Nc2c(C(C)C)cccc2C(C)C)nn1C` [Example 69, 3-(N-((2,6-Diisopropylphenyl)carbamoyl)sulfamoyl)-N,N-bis(2-methoxyethyl)-1-methyl-1H-pyrazole-5-carboxamide], 2560 to 10000 nM; that for `CC(C)c1cc(F)cc(C(C)C)c1NC(=O)NS(=O)(=O)c1cc(C2(O)COC2)n(C(C)C)n1` [Example 43, N-((4-Fluoro-2,6-diisopropylphenyl)carbamoyl)-5-(3-hydroxyoxetan-3-yl)-1-isopropyl-1H-pyrazole-3-sulfonamide], 640 to 2560 nM.
On to `O=C(Nc1c2c(cc3c1CCC3)CCC2)NS(=O)(=O)c1cnn(C2CCOCC2)c1` [Example 99], for which the IC50 in data set [1] lay in the range of 2560 to 10000 nM.
Turning to `COCCNC(=O)c1cc(S(=O)(=O)NC(=O)Nc2c3c(cc4c2CCC4)CCC3)nn1C` [Example 85, 3-(N-((1,2,3,5,6,7-Hexahydro-s-indacen-4-yl)carbamoyl)sulfamoyl)-N-(2-methoxyethyl)-1-methyl-1H-pyrazole-5-carboxamide], the IC50 in data set [1] lay within 2560 to 10000 nM.
Consider `CC(C)(O)c1coc(S(=O)(=O)NC(=O)Nc2c3c(cc4c2CCC4)CCC3)c1` [MCC950, reference compound], for which, in data set [2], the AUC (in general, the area under the concentration-time curve, a measure of exposure) turned out to be 611 ng·h/mL; the clearance came out at 27.8 mL/min/kg; the half-life – broadly, the time in which the quantity being followed falls by half – is 1.2 h; the Vd was 0.53 L/kg.
Turning to `Cn1nc(S(=O)(=O)NC(=O)Nc2c3c(cc4c2CCC4)CCC3)cc1C(=O)N1CCOCC1` [Example 74, N-((1,2,3,5,6,7-Hexahydro-s-indacen-4-yl)carbamoyl)-1-methyl-5-(morpholine-4-carbonyl)-1H-pyrazole-3-sulfonamide], the IC50 in data set [1] fell in the range of 640 to 2560 nM.
`CN(CCO)Cc1cc(S(=O)(=O)NC(=O)Nc2c3c(cc4c2CCC4)CCC3)nn1C` [Example 77, N-((1,2,3,5,6,7-Hexahydro-s-indacen-4-yl)carbamoyl)-5-(((2-hydroxyethyl)(methyl)amino)methyl)-1-methyl-1H-pyrazole-3-sulfonamide]: in data set [2], the AUC is 2070 ng·h/mL, the clearance turned out to be 8.1 mL/min/kg, the half-life is 14.2 h and the Vd turned out to be 1.9 L/kg.
As to `CC(C)c1cccc(C(C)C)c1NC(=O)NS(=O)(=O)c1cc(C(=O)N(C)CCO)n(C)n1` [Example 83, 3-(N-((2,6-Diisopropylphenyl)carbamoyl)sulfamoyl)-N-(2-hydroxyethyl)-N,1-dimethyl-1H-pyrazole-5-carboxamide], the IC50 in data set [1] was in the range of 640 to 2560 nM.
For `CCn1nc(S(=O)(=O)NC(=O)Nc2c(C(C)C)cc(F)cc2C(C)C)cc1C1(O)COC1` [Example 44, 1-Ethyl-N-((4-fluoro-2,6-diisopropylphenyl)carbamoyl)-5-(3-hydroxyoxetan-3-yl)-1H-pyrazole-3-sulfonamide], in data set [1], the IC50 was 160 to 640 nM.
For the compound `O=C(Nc1c2c(cc3c1CCC3)CCC2)NS(=O)(=O)c1ccn(C2COCC2O)n1` (stereo not shown) [Example 105], the IC50 in data set [1] lay within 160 to 640 nM.
With `Cn1nc(S(=O)(=O)NC(=O)Nc2c3c(cc4c2CCC4)CCC3)cc1C(=O)NCCO` [Example 84, 3-(N-((1,2,3,5,6,7-Hexahydro-s-indacen-4-yl)carbamoyl)sulfamoyl)-N-(2-hydroxyethyl)-1-methyl-1H-pyrazole-5-carboxamide], the half-maximal inhibitory concentration (IC50) in data set [1] lay in the range of 2560 to 10000 nM.
Regarding `CC(C)c1cc(F)cc(C(C)C)c1NC(=O)NS(=O)(=O)c1cc(C2(O)CCOCC2)n(C)n1` [Example 54, N-((4-Fluoro-2,6-diisopropylphenyl)carbamoyl)-5-(4-hydroxytetrahydro-2H-pyran-4-yl)-1-methyl-1H-pyrazole-3-sulfonamide], the IC50 in data set [1] was 640 to 2560 nM.
Take `C[C@@H](O)Cn1cc(S(=O)(=O)NC(=O)Nc2c3c(cc4c2CCC4)CCC3)cn1` [Example 89, (R)—N-((1,2,3,5,6,7-Hexahydro-s-indacen-4-yl)carbamoyl)-1-(2-hydroxypropyl)-1H-pyrazole-4-sulfonamide]: the IC50 in data set [1] lay within 640 to 2560 nM.
In the case of `COC1(c2cc(S(=O)(=O)NC(=O)Nc3c(C(C)C)cc(F)cc3C(C)C)nn2C)COC1` [Example 52, N-((4-Fluoro-2,6-diisopropylphenyl)carbamoyl)-5-(3-methoxyoxetan-3-yl)-1-methyl-1H-pyrazole-3-sulfonamide], in data set [1], the IC50 was 160 to 640 nM.
For the compound `CN(C(=O)c1cc(S(=O)(=O)NC(=O)Nc2c3c(cc4c2CCC4)CCC3)nn1C)C1CCOCC1` [Example 60, 3-(N-((1,2,3,5,6,7-Hexahydro-s-indacen-4-yl)carbamoyl)sulfamoyl)-N,1-dimethyl-N-(tetrahydro-2H-pyran-4-yl)-1H-pyrazole-5-carboxamide], in data set [1], the IC50 was 2560 to 10000 nM.
On to `Cn1nc(S(=O)(=O)NC(=O)Nc2c3c(cc4c2CCC4)CCC3)cc1C(=O)N1CCC(O)CC1` [Example 70, N-((1,2,3,5,6,7-Hexahydro-s-indacen-4-yl)carbamoyl)-5-(4-hydroxypiperidine-1-carbonyl)-1-methyl-1H-pyrazole-3-sulfonamide], for which the IC50 in data set [1] lay within 2560 to 10000 nM.
Take `COCCn1cc(S(=O)(=O)NC(=O)Nc2c3c(cc4c2CCC4)CCC3)cn1` [Example 101]: in data set [1], the IC50 is 640 to 2560 nM.
Turning to `COC1CCN(C(=O)c2cc(S(=O)(=O)NC(=O)Nc3c4c(cc5c3CCC5)CCC4)nn2C)C1` (stereo not shown) [Example 71, N-((1,2,3,5,6,7-Hexahydro-s-indacen-4-yl)carbamoyl)-5-(3-methoxypyrrolidine-1-carbonyl)-1-methyl-1H-pyrazole-3-sulfonamide], the IC50 in data set [1] lay within 2560 to 10000 nM.
Consider `COCCN(C)C(=O)c1cc(S(=O)(=O)NC(=O)Nc2c(C(C)C)cccc2C(C)C)nn1C` [Example 68, 3-(N-((2,6-Diisopropylphenyl)carbamoyl)sulfamoyl)-N-(2-methoxyethyl)-N,1-dimethyl-1H-pyrazole-5-carboxamide], for which, in data set [1], the IC50 lay in the range of 2560 to 10000 nM.
In the case of `O=C(Nc1c2c(cc3c1CCC3)CCC2)NS(=O)(=O)c1cnn(C2CCOC2)c1` (stereo not shown) [Example 100], the IC50 in data set [1] was in the range of 640 to 2560 nM.
The same measure, in the same setting: to `CC(C)c1cc(F)cc(C(C)C)c1NC(=O)NS(=O)(=O)c1ccn(C[C@@H](C)O)n1` [Example 27, (R)—N-((4-Fluoro-2,6-diisopropylphenyl)carbamoyl)-1-(2-hydroxypropyl)-1H-pyrazole-3-sulfonamide] belongs 640 to 2560 nM.

The record behind these values is patent publication US12012392B2, “Sulfonamide carboxamide compounds” (Inflazome Limited, priority 2017, dated 2024).
